Patent US12024504B2, “1-methyl-1H-pyrazol-3-yl derivatives for use in the treatment of neovascular diseases” (EXONATE LIMITED, priority 2021, dated 2024)
≈ marks a conversion by molar mass, not a printed value.

Assays:
[1] = Porcine scleral permeability (modified Ussing chamber); type: in vitro ADME; details: for Papp at 24 h, 10 μg/mL: pig, pH 7.4, porcine excised eye tissue, 10 μg/mL compound on donor side
Procedure: Scleral permeability was measured using a modified Ussing chamber assembly in the initial eye drop formulation containing 1% hydroxypropyl methyl cellulose, 0.2% tyloxapol, 3.4% dextrose, 0.006% benzalkonium chloride, and 0.025% ethylenediaminetetraacetic acid with 1% DMSO in PBS (pH 7.4). Porcine excised eye tissues were mounted in the chambers such that the episcleral side faced the donor chamber and the retinal side faced the receiver chamber. The chambers were filled with equal volumes of eye drop formulation, with (donor side) or without (receiver side) 10 μg/mL compound. After 24 hours tissue was removed from the chamber and the receiver side (“vitreous”) sampled. Tissue was dissected into sclera, choroid/RPE, and retina and homogenised. A tracer (SPHINX7; WO 2015/159103) was added, and tissue extracted by acetonitrile extraction as described in Batson et al (2017). Compounds were then analysed by mass spectrometry as described in Batson et al (2017).
To determine whether compounds could get across the sclera of a larger animal, porcine sclera was clamped between two chambers and compounds were added to the sclera with eye drop formulation added to the bottom chamber and compounds added to the top chamber. After 24 hours, the fluid from the bottom chamber (vitreous) and the retinal tissue was isolated and compounds purified by methanol or acetonitrile extraction and HPLC.

[2] = molecular target: T1, SRPK1 (Homo sapiens, UniProt Q96SB4); assay: In vitro kinase assay (radioactive filter binding, 33P ATP); type: biochemical
T1 construct: purchased MRC Dundee Kinase Centre (external assay service)
Procedure: Kinase assays were carried out by the MRC Dundee Kinase Centre using a radioactive filter binding assay using ^33P ATP (Hastie, et al 2006. Nat Protoc. 2006; 1(2):968-71; Bain, et al 2007. Biochem J. 2007 Dec. 15; 408(3):297-315).

[3] = system: choroidal neovascularisation; details: mouse models of choroidal neovascularisation, previously shown; cited from earlier work
[4] = Solubility in eye drop formulation; type: physicochemical; details: aqueous with cosolvent or surfactant or cyclodextrin; initial eye drop formulation (1% HPMC, 0.2% tyloxapol, 3.4% dextrose, 1% DMSO in PBS); read-out: Maximum limit of solubility
[5] = system: VEGF165b and VEGF165; details: cited from earlier work
[6] = 0.5 mg monthly, at one year; cited from earlier work

T1 sequence (Q96SB4 whole entry): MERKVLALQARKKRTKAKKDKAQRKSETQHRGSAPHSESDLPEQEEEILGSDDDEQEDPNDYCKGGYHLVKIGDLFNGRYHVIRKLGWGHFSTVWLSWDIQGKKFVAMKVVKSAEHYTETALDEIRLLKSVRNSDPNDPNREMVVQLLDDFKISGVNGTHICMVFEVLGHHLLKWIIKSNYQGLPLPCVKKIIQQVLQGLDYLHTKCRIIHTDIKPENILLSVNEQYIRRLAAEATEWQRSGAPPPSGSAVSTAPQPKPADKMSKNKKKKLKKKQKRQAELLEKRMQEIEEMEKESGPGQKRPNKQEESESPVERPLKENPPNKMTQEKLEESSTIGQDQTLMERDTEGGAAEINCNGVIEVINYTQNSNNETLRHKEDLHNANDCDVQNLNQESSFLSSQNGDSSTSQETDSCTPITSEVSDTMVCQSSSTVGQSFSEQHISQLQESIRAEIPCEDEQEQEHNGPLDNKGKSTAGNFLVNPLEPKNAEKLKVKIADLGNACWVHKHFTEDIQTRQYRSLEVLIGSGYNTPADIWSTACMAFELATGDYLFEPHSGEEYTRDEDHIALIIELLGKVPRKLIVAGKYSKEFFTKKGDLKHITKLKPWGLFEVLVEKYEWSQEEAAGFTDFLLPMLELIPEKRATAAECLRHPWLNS

**Q.** For `Cn1ccc(CN2CCCN(c3ccc(C(F)(F)F)cc3NC(=O)c3ccc(C4CCOCC4)o3)CC2)n1` [Compound 2, N-(2-(4-((1-methyl-1H-pyrazol-3-yl)methyl)-1,4-diazepan-1-yl)-5-(trifluoromethyl)phenyl)-5-(tetrahydro-2H-pyran-4-yl)furan-2-carboxamide], which Papp at 24 h, 10 μg/mL [1] is on record?
**A.** Its Papp at 24 h, 10 μg/mL is 0.0442 ×10⁻⁶ cm/s.

**Q.** And the IC50 [2]?
**A.** Its IC50 is 10 nM.

**Q.** Which results are given for `Cn1ccc(CN2CCCN(c3ccc(Cl)cc3NC(=O)c3ccc(C4CCOCC4)o3)CC2)n1` [Compound 3, N-(5-chloro-2-(4-((1-methyl-1H-pyrazol-3-yl)methyl)-1,4-diazepan-1-yl)phenyl)-5-(tetrahydro-2H-pyran-4-yl)furan-2-carboxamide]?
**A.** Papp at 24 h, 10 μg/mL [1]: 0.0675 ×10⁻⁶ cm/s; melting point: 148 to 150 °C; IC50 [2]: 35 nM

**Q.** For `O=C(Nc1cc(C(F)(F)F)ccc1N1CCN(Cc2cc[nH]n2)CC1)c1ccc(C2CCOCC2)o1` [Compound R, N-(2-(4-((1H-pyrazol-3-yl)methyl)piperazin-1-yl)-5-(trifluoromethyl)-phenyl)-5-(tetrahydro-2H-pyran-4-yl)furan-2-carboxamide, reference compound], which “Permeability across porcine sclera (in words)” value ([1]; 24 hours, FIG. 1) is on record?
**A.** The value was “considerably lower permeability”.

**Q.** Which “Eye drop concentration of maximum effect” value [3] does the source give for `O=C(Nc1cc(C(F)(F)F)ccc1N1CCN(Cc2ccccn2)CC1)c1ccc(-c2ccncc2)o1` [SPHINX31] here?
**A.** Its value is 2 µg/mL.

**Q.** With `Cc1ccc(Nc2nccc(N(C)c3ccc4c(C)n(C)nc4c3)n2)cc1S(N)(=O)=O` [pazopanib] as the molecule, how does the solubility [4] read?
**A.** The solubility was 80 µg/mL (≈ 183 µM).

**Q.** Which “Binding of VEGF165b relative to VEGF165” value [5] does the source give for “bevicizumab: an anti-VEGF antibody from which Lucentis was derived” here?
**A.** Its value is “equal potency”.

B1: Lucentis: a novel humanized anti-VEGF antibody fragment (antibody, chains of the INN, looked up, V domains shown)
VH: EVQLVESGGGLVQPGGSLRLSCAASGYDFTHYGMNWVRQAPGKGLEWVGWINTYTGEPTYAADFKRRFTFSLDTSKSTAYLQMNSLRAEDTAVYYCAKYPYYYGTSHWYFDVWGQGTLVTVSS
VL: DIQLTQSPSSLSASVGDRVTITCSASQDISNYLNWYQQKPGKAPKVLIYFTSSLHSGVPSRFSGSGSGTDFTLTISSLQPEDFATYYCQQYSTVPWTFGQGTKVEIK
modifications: Fab
notes: a novel humanized anti-VEGF antibody fragment
**Q.** Which “Patients who maintained visual acuity (loss of <15 letters)” value [6] does the source give for B1 here?
**A.** The value was “approximately 95%”.

**Q.** And the “Patients with improved vision (gain of ≥15 letters)” value [6]?
**A.** The value was no more than 40%.
